Where two headings read alike, the source gives them in different places.
What was measured:
[1] = tested on: MDA-MB-436 (BRCA1 mutant) cell line; assay: Viability assay in BRCA1 mutant cell line MDA-MB-436; type: cell-based; conditions: Homo sapiens, BRCA1 mutant MDA-MB-436, read-out: MDA-MB-436 rel IC50
Description: (§1) Table 1 also indicates IC50 values in a viability assay for a non-isogenic pair of BRCA1 mutant (column 5—MDA-MB-436) and BRCA1 WT (column 6—HCC1954) cell lines. These values indicate the effect of treatment with compound on cell survival.

[2] = tested on: HCC1954 (BRCA1 WT) cell line; assay: Viability assay in BRCA1 WT cell line HCC1954; type: cell-based; conditions: for IC50: Homo sapiens, read-out: HCC 1954 IC50 rel IC50
Description: as §1

monoubiquitinated PCNA = assay: AlphaLISA assay measuring monoubiquitinated PCNA in MDA-MB-436; type: cell-based; conditions: Homo sapiens, read-out: Alpha LISA IC50
Description: Table 1 also indicates IC50 values for exemplary compounds in an AlphaLISA assay measuring monoubiquitinated PCNA in a BRCA1 mutant cell line (MDA-MB-436; column 7).

USP1-UAF1 = USP1-UAF1 (Homo sapiens, UniProt O94782); assay: Ubiquitin Rhodamine assay for USP1-UAF1 activity; type: biochemical
Method: Certain compounds of the disclosure were assessed for USP1-UAF1 activity in a Ubiquitin Rhodamine assay as described in Example 135.

USP1-UAF1, sequence (O94782 whole entry): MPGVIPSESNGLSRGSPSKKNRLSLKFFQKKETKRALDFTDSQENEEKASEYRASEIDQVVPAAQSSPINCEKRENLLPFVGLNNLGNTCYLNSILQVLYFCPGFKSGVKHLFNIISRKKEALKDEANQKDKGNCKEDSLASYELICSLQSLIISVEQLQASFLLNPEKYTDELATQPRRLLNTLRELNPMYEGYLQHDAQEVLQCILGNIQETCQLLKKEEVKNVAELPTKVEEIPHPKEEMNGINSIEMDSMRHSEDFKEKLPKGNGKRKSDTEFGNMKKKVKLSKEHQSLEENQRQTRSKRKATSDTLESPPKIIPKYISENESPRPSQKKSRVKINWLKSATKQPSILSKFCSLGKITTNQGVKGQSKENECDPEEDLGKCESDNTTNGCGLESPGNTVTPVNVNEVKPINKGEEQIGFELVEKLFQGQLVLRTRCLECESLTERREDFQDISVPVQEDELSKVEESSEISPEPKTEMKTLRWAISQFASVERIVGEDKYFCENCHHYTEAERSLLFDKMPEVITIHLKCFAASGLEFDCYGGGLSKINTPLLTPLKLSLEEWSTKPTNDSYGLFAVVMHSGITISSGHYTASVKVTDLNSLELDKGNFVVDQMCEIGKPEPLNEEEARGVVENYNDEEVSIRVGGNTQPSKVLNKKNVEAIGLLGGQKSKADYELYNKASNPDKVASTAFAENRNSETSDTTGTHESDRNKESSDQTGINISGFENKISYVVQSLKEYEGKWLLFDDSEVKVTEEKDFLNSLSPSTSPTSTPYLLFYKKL
USP1-UAF1, sequence (Q8TAF3 whole entry partner): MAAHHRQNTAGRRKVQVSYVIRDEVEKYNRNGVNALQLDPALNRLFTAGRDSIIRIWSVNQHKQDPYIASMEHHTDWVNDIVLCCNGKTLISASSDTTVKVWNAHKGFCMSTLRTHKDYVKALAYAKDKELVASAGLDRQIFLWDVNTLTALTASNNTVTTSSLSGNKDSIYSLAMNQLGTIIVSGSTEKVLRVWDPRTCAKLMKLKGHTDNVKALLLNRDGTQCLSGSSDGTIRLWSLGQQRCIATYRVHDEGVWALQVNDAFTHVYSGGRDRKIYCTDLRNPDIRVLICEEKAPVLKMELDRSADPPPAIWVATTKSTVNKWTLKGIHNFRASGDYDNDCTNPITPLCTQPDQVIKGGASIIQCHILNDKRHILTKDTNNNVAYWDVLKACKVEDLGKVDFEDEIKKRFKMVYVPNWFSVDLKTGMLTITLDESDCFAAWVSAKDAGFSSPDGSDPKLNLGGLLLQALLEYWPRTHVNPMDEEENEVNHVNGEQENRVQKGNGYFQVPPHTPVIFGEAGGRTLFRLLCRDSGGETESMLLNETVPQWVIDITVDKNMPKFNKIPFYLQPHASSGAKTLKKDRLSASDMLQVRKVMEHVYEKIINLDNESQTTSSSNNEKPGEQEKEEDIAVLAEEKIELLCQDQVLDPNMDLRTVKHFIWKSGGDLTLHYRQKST

Compound	IC50 ([1]; MDA-MB-436, viability) [nM]	IC50 [2] [µM]	IC50 (monoubiquitinated PCNA) [nM]	IC50 (USP1-UAF1) [nM]	HCC 1954 IC50 rel IC50 [2]	IC50 ([1]; viability) [nM]
CC(C)c1ccccc1-c1ncc2[nH]cc(C(C)(O)c3ccc(-c4nc(C(F)(F)F)cn4C)cc3)c2n1 (centres unmarked) [Compound 48, 1-[2-(2-isopropylphenyl)-5H-pyrrolo[3,2-d]pyrimidin-7-yl]-1-[4-[1-methyl-4-(trifluoromethyl)imidazol-2-yl]phenyl]ethanol]	< 100	≥ 10	< 100	< 30	–	–
CC(C)c1ccccc1-c1ncc2c(n1)c(Cc1ccc(-c3nc(C(F)(F)F)cn3C)cc1)cn2CCO [Compound 57, 2-[2-(2-isopropylphenyl)-7-[[4-[1-methyl-4-(trifluoromethyl)imidazol-2-yl]phenyl]methyl]pyrrolo[3,2-d]pyrimidin-5-yl]ethanol]	250 to 10000	≥ 10	100 to 250	< 30	–	–
Cn1cc(C(F)(F)F)nc1-c1ccc(Cc2c[nH]c3cnc(-c4cccnc4C4CC4)nc23)cc1 [Compound 60, 2-(2-cyclopropyl-3-pyridyl)-7-[[4-[1-methyl-4-(trifluoromethyl)imidazol-2-yl]phenyl]methyl]-5H-pyrrolo[3,2-d]pyrimidine]	< 100	≥ 10	< 100	< 30	–	–
COc1ncnc(C2CC2)c1-c1ncc2[nH]cc(Cc3ccc(-c4nc(C(F)(F)F)cn4C)cc3)c2n1 [Compound 65, 2-(4-cyclopropyl-6-methoxy-pyrimidin-5-yl)-7-[[4-[1-methyl-4-(trifluoromethyl)imidazol-2-yl]phenyl]methyl]-5H-pyrrolo[3,2-d]pyrimidine]	< 100	≥ 10	< 100	< 30	–	–
Cn1cc(C(F)(F)F)nc1-c1ccc(Cc2c[nH]c3cnc(-c4cccnc4C4CC4)cc23)cc1 [Compound 66, 2-cyclopropyl-3-[3-([4-[1-methyl-4-(trifluoromethyl)imidazol-2-yl]phenyl]methyl)-1H-pyrrolo[2,3-c]pyridin-5-yl]pyridine]	100 to 250	0.25 to 10	< 100	30 to 100	–	–
Cn1cc(C(F)(F)F)nc1-c1ccc(Cc2c[nH]c3cnc(-c4cccnc4N4CCC4)nc23)cc1 [Compound 67, 2-[2-(azetidin-1-yl)-3-pyridyl]-7-[[4-[1-methyl-4-(trifluoromethyl)imidazol-2-yl]phenyl]methyl]-5H-pyrrolo[3,2-d]pyrimidine]	250 to 10000	≥ 10	250 to 10000	100 to 10000	–	–
COc1ncnc(C2CC2)c1-c1ncc2[nH]cc(Oc3ccc(-c4nc(C(F)(F)F)cn4C)cc3)c2n1 [Compound 69, 2-(4-cyclopropyl-6-methoxy-pyrimidin-5-yl)-7-[4-[1-methyl-4-(trifluoromethyl)imidazol-2-yl]phenoxy]-5H-pyrrolo[3,2-d]pyrimidine]	250 to 10000	≥ 10	250 to 10000	100 to 10000	–	–
CC(C)c1ccccc1-c1cc2c(CN3CCN(c4nc(C(F)(F)F)cn4C)CC3)c[nH]c2cn1 [Compound 71]	250 to 10000	0.25 to 10	250 to 10000	100 to 10000	–	–
COC(c1ccc(-c2nc(C(F)(F)F)cn2C)cc1)c1c[nH]c2cnc(-c3ccccc3C(C)C)nc12 (centres unmarked) [Compound 73, 2-(2-isopropylphenyl)-7-[methoxy-[4-[1-methyl-4-(trifluoromethyl)imidazol-2-yl]phenyl]methyl]-5H-pyrrolo[3,2-d]pyrimidine]	250 to 10000	0.25 to 10	100 to 250	100 to 10000	–	–
Cn1cc(C(F)(F)F)nc1-c1ccc(Cc2c[nH]c3cnc(-c4cccnc4OCC(F)(F)F)nc23)cc1 [Compound 78]	< 100	0.25 to 10	< 100	< 30	–	–
COc1ncnc(C2CC2)c1-c1ncc2c(n1)c(Cc1ccc(-c3nc(C(F)(F)F)cn3C)cc1)cn2C(C)=O [Compound 93, 1-[2-(4-cyclopropyl-6-methoxy-pyrimidin-5-yl)-7-[[4-[1-methyl-4-(trifluoromethyl)imidazol-2-yl]phenyl]methyl]pyrrolo[3,2-d]pyrimidin-5-yl]ethanone]	–	≥ 10	< 100	30 to 100	–	< 100
COc1ncnc(C2CC2)c1-c1ncc2nn(C(C)=O)c(Cc3ccc(-c4nc(C(F)(F)F)cn4C)cc3)c2n1 [Compound 101, 1-(5-(4-cyclopropyl-6-methoxypyrimidin-5-yl)-3-(4-(1-methyl-4-(trifluoromethyl)-1H-imidazol-2-yl)benzyl)-2H-pyrazolo[4,3-d]pyrimidin-2-yl)ethan-1-one]	–	≥ 10	< 100	30 to 100	–	< 100

Further lines, with some results ahead:

IC50 ([1]; MDA-MB-436, viability) [nM]	IC50 [2] [µM]	IC50 (monoubiquitinated PCNA) [nM]	IC50 (USP1-UAF1) [nM]	HCC 1954 IC50 rel IC50 [2]	Compound	IC50 ([1]; viability) [nM]
< 100	0.25 to 10	< 100	< 30	–	COc1ncnc(C2CC2)c1-c1ncc2[nH]cc(Cc3ccc(-c4nc(C(F)(F)F)cn4C4CC4)cc3)c2n1 [Compound 81, 2-(4-cyclopropyl-6-methoxy-pyrimidin-5-yl)-7-[[4-[1-cyclopropyl-4-(trifluoromethyl)imidazol-2-yl]phenyl]methyl]-5H-pyrrolo[3,2-d]pyrimidine]	–
< 100	≥ 10	< 100	< 30	–	COCCn1cc(Cc2ccc(-c3nc(C(F)(F)F)cn3C)cc2)c2nc(-c3ccccc3C(C)C)ncc21 [Compound 83, 2-(2-isopropylphenyl)-5-(2-methoxyethyl)-7-[[4-[1-methyl-4-(trifluoromethyl)imidazol-2-yl]phenyl]methyl]pyrrolo[3,2-d]pyrimidine]	–
250 to 10000	≥ 10	250 to 10000	100 to 10000	–	Cn1cc(C(F)(F)F)nc1-c1ccc(Sc2c[nH]c3cnc(-c4ccccc4C(F)(F)F)nc23)cc1 [Compound 84, 7-[4-[1-methyl-4-(trifluoromethyl)imidazol-2-yl]phenyl]sulfanyl-2-[2-(trifluoromethyl)phenyl]-5H-pyrrolo[3,2-d]pyrimidine]	–
< 100	≥ 10	< 100	< 30	–	COc1ncnc(C2(F)CC2)c1-c1ncc2[nH]cc(Cc3ccc(-c4nc(C(F)(F)F)cn4C)cc3)c2n1 [Compound 87]	–
< 100	≥ 10	< 100	< 30	–	COc1ncnc(C2CC2)c1-c1ncc2[nH]cc(Cc3ccc(-n4nc(C(F)(F)F)cc4C)c(F)c3)c2n1 [Compound 88, 2-(4-cyclopropyl-6-methoxy-pyrimidin-5-yl)-7-[[3-fluoro-4-[5-methyl-3-(trifluoromethyl)pyrazol-1-yl]phenyl]methyl]-5H-pyrrolo[3,2-d]pyrimidine]	–
< 100	≥ 10	< 100	< 30	–	COc1ncnc(C2CC2)c1-c1ncc2[nH]nc(Cc3ccc(-c4nc(C(F)(F)F)cn4C)c(F)c3)c2n1 [Compound 90, 5-(4-cyclopropyl-6-methoxypyrimidin-5-yl)-3-(3-fluoro-4-(1-methyl-4-(trifluoromethyl)-1H-imidazol-2-yl)benzyl)-1H-pyrazolo[4,3-d]pyrimidine]	–
100 to 250	≥ 10	100 to 250	100 to 10000	–	COc1ncnc(C2CC2)c1-c1ncc2c(n1)c(Cc1ccc(-c3nc(C(F)(F)F)cn3C)cc1)cn2C(C)C [Compound 91]	–
< 100	–	< 100	30 to 100	dd	CC(C)n1cc(C(F)(F)F)nc1-c1ccc(C(O)c2c[nH]c3cnc(-c4c(OC(F)F)ncnc4C4CC4)nc23)cc1 (centres unmarked) [Compound 92]	–
< 100	≥ 10	< 100	< 30	–	COCc1[nH]c2cnc(-c3c(OC)ncnc3C3CC3)nc2c1Cc1ccc(-c2nc(C(F)(F)F)cn2C)cc1 [Compound 94, 2-(4-cyclopropyl-6-methoxy-pyrimidin-5-yl)-6-(methoxymethyl)-7-[[4-[1-methyl-4-(trifluoromethyl)imidazol-2-yl]phenyl]methyl]-5H-pyrrolo[3,2-d]pyrimidine]	–
< 100	≥ 10	< 100	< 30	–	COc1ncnc(C2CC2)c1-c1ncc2[nH]nc(Cc3ccc(-c4nc(C(F)(F)F)cn4C)c(C)c3)c2n1 [Compound 95, 5-(4-cyclopropyl-6-methoxy-pyrimidin-5-yl)-3-[[3-methyl-4-[1-methyl-4-(trifluoromethyl)imidazol-2-yl]phenyl]methyl]-1H-pyrazolo[4,3-d]pyrimidine]	–
100 to 250	≥ 10	100 to 250	30 to 100	–	COc1ncnc(C(C)(C)C)c1-c1ncc2c(n1)c(Cc1ccc(-c3nc(C(F)(F)F)cn3C)cc1)nn2C [Compound 96]	–
< 100	≥ 10	< 100	< 30	–	[2H]C([2H])([2H])n1cc(C(F)(F)F)nc1-c1ccc(Cc2n[nH]c3cnc(-c4c(OC)ncnc4C4CC4)nc23)cc1 [Compound 97, 5-(4-cyclopropyl-6-methoxy-pyrimidin-5-yl)-3-[[4-[1-(trideuteriomethyl)-4-(trifluoromethyl)imidazol-2-yl]phenyl]methyl]-1H-pyrazolo[4,3-d]pyrimidine]	–
100 to 250	≥ 10	< 100	30 to 100	–	COc1ncnc(OC)c1-c1ncc2[nH]cc(Cc3ccc(-c4nc(C(F)(F)F)cn4C)cc3)c2n1 [Compound 100]	–
100 to 250	≥ 10	100 to 250	< 30	–	CC(C)Oc1ncnc(C2CC2)c1-c1ncc2[nH]nc(Cc3ccc(-c4nc(C(F)(F)F)cn4C)cc3)c2n1 [Compound 102]	–

Reference: patent US20240182481A1 (Tango Therapeutics, Inc., priority 2021, published 2024)
